In PMC5458547, “Discovery of first-in-class reversible dual small molecule inhibitors against G9a and DNMTs in hematological malignancies” (Nature Communications, 2017):

Columns and labels:
Experiment in all cases: KINOMEscan kinase profiling
Type in all cases: binding
BRAF = target: T1, BRAF (Homo sapiens, UniProt P15056); settings: read-out: Percent Control
T1 construct: purchased DiscoverX KINOMEscan (kinases); BPS Bioscience (epigenetic targets)
Description: (§1) Kinase Selectivity Profiling
(§2) (out of which 90 are non-mutant kinases) was performed at DiscoverRx (http://www.discoverx.com/home) using the KINOMEscan™ screening platform at a test concentration of 10 µM. Results for primary screen […]
(§3) positive control signal) / (negative control signal – positive control signal) *100, where negative control corresponds to DMSO treatment (100%) and positive control to the signal obtained with a control competitive compound (0%). […]
(§4) using the Hill equation. Each target was assayed in duplicate. […]

SNARK = target: T2, SNARK (Homo sapiens, UniProt Q9H093); settings: read-out: Percent Control
T2 construct: purchased DiscoverX KINOMEscan (kinases); BPS Bioscience (epigenetic targets)
Description: as §1, §2, §3, §4

FAK = target: T3, FAK (Homo sapiens, UniProt Q05397); settings: read-out: Percent Control
T3 construct: purchased DiscoverX KINOMEscan (kinases); BPS Bioscience (epigenetic targets)
Description: as §1, §2, §3, §4

ALK = target: T4, ALK (Homo sapiens, UniProt Q9UM73)
T4 construct: purchased DiscoverRx (KINOMEscan contract screen)
Description: as §1, §2, §3, §4

BMPR2 = target: T5, BMPR2 (Homo sapiens, UniProt Q13873); settings: read-out: Percent Control
T5 construct: purchased DiscoverX KINOMEscan (kinases); BPS Bioscience (epigenetic targets)
Description: as §1, §2, §3, §4

CSNK1D = target: T6, CSNK1D (Homo sapiens, UniProt P48730); settings: read-out: Percent Control
T6 construct: purchased DiscoverX KINOMEscan (kinases); BPS Bioscience (epigenetic targets)
Description: as §1, §2, §3, §4

SRC = target: T7, SRC (Homo sapiens, UniProt P12931); settings: read-out: Percent Control
T7 construct: purchased DiscoverX KINOMEscan (kinases); BPS Bioscience (epigenetic targets)
Description: as §1, §2, §3, §4

CDK7 = target: T8, CDK7 (Homo sapiens, UniProt P50613); settings: read-out: Percent Control
T8 construct: purchased DiscoverX KINOMEscan (kinases); BPS Bioscience (epigenetic targets)
Description: as §1, §2, §3, §4

PAK2 = target: T9, PAK2 (Homo sapiens, UniProt Q13177); settings: read-out: Percent Control
T9 construct: purchased DiscoverX KINOMEscan (kinases); BPS Bioscience (epigenetic targets)
Description: as §1, §2, §3, §4

ULK2 = target: T10, ULK2 (Homo sapiens, UniProt Q8IYT8); settings: read-out: Percent Control
T10 construct: purchased DiscoverX KINOMEscan (kinases); BPS Bioscience (epigenetic targets)
Description: as §1, §2, §3, §4

DCAMKL1 = target: T11, DCAMKL1 (Homo sapiens, UniProt O15075); settings: read-out: Percent Control
T11 construct: purchased DiscoverX KINOMEscan (kinases); BPS Bioscience (epigenetic targets)
Description: as §1, §2, §3, §4

PIK3C2B = target: T12, PIK3C2B (Homo sapiens, UniProt O00750); settings: read-out: Percent Control
T12 construct: purchased DiscoverX KINOMEscan (kinases); BPS Bioscience (epigenetic targets)
Description: as §1, §2, §3, §4

PIK3CG = target: T13, PIK3CG (Homo sapiens, UniProt P48736); settings: read-out: Percent Control
T13 construct: purchased DiscoverX KINOMEscan (kinases); BPS Bioscience (epigenetic targets)
Description: as §1, §2, §3, §4

JNK3 = target: T14, JNK3 (Homo sapiens, UniProt P53779); settings: read-out: Percent Control
T14 construct: purchased DiscoverX KINOMEscan (kinases); BPS Bioscience (epigenetic targets)
Description: as §1, §2, §3, §4

LKB1 = target: T15, LKB1 (Homo sapiens, UniProt Q15831); settings: read-out: Percent Control
T15 construct: purchased DiscoverX KINOMEscan (kinases); BPS Bioscience (epigenetic targets)
Description: as §1, §2, §3, §4

PDGFRB = target: T16, PDGFRB (Homo sapiens, UniProt P09619); settings: read-out: Percent Control
T16 construct: purchased DiscoverX KINOMEscan (kinases); BPS Bioscience (epigenetic targets)
Description: as §1, §2, §3, §4

PKAC-alpha = target: T17, PKAC-alpha (Homo sapiens, UniProt P17612); settings: read-out: Percent Control
T17 construct: purchased DiscoverX KINOMEscan (kinases); BPS Bioscience (epigenetic targets)
Description: as §1, §2, §3, §4

ERK1 = target: T18, ERK1 (Homo sapiens, UniProt P27361); settings: read-out: Percent Control
T18 construct: purchased DiscoverX KINOMEscan (kinases); BPS Bioscience (epigenetic targets)
Description: as §1, §2, §3, §4

BTK = target: T19, BTK (Homo sapiens, UniProt Q06187)
T19 construct: purchased DiscoverRx (KINOMEscan contract screen)
Description: as §1, §2, §3, §4

MAPKAPK2 = target: T20, MAPKAPK2 (Homo sapiens, UniProt P49137); settings: read-out: Percent Control
T20 construct: purchased DiscoverX KINOMEscan (kinases); BPS Bioscience (epigenetic targets)
Description: as §1, §2, §3, §4

AURKB = target: T21, AURKB (Homo sapiens, UniProt Q96GD4); settings: read-out: Percent Control
T21 construct: purchased DiscoverX KINOMEscan (kinases); BPS Bioscience (epigenetic targets)
Description: as §1, §2, §3, §4

[1] = 10 µM, read-out: Percent Control

T4 sequence (Q9UM73 19-1620): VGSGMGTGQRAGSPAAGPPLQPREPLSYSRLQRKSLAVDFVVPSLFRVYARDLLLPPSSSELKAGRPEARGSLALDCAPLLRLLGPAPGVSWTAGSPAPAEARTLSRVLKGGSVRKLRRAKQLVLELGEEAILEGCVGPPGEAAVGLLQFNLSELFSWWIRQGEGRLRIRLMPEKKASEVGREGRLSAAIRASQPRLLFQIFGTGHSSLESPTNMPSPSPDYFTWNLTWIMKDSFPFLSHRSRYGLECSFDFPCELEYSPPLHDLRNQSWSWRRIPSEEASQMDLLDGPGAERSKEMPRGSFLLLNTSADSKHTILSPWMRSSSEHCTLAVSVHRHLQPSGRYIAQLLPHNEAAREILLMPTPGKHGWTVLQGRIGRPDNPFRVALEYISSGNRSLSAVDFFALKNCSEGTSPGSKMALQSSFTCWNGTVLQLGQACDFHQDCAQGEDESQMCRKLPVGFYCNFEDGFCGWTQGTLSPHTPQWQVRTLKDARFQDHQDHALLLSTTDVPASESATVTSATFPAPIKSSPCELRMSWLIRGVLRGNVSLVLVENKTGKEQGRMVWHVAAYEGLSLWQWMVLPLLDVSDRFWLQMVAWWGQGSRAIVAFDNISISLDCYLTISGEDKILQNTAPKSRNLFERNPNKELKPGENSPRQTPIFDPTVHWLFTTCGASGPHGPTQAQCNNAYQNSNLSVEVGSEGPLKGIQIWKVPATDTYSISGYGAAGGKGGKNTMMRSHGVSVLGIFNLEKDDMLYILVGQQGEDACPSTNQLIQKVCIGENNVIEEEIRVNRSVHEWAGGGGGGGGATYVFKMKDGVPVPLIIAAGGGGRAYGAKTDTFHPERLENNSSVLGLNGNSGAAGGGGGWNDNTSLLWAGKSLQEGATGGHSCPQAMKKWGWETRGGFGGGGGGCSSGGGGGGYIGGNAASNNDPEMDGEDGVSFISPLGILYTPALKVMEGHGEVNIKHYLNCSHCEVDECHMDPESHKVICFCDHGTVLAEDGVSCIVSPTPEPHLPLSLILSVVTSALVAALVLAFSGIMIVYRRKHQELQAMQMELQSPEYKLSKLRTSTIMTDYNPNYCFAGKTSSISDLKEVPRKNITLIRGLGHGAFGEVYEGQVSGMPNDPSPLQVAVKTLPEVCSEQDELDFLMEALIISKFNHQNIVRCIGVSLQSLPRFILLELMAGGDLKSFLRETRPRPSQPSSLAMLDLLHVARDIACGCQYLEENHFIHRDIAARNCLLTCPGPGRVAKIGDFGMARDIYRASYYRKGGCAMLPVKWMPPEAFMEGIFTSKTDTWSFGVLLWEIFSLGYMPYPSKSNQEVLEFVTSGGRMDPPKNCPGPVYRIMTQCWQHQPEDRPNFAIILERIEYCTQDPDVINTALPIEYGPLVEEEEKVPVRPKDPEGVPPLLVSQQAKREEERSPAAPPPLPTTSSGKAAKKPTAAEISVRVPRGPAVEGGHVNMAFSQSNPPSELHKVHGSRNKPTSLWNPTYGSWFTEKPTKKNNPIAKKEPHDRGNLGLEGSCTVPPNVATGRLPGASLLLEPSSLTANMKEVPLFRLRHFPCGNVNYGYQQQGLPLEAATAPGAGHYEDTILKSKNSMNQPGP
T19 sequence (Q06187 whole entry): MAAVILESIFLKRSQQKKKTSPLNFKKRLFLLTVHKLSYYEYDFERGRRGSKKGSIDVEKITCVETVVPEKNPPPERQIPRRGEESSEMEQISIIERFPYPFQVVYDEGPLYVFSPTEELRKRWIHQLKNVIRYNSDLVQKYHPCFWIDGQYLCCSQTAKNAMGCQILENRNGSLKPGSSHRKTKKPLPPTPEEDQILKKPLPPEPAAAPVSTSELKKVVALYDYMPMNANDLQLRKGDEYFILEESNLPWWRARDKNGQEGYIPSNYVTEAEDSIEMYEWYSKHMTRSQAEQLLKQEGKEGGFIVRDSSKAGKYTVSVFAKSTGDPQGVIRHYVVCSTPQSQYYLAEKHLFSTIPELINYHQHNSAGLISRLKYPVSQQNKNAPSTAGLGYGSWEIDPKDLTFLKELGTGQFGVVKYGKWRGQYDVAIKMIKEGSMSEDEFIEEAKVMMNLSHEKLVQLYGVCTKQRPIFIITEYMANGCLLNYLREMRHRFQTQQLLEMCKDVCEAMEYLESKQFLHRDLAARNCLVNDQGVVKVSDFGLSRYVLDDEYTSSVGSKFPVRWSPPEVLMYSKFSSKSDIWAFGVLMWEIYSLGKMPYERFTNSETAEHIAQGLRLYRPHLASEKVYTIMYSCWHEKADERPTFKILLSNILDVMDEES
T9 sequence (Q13177 whole entry): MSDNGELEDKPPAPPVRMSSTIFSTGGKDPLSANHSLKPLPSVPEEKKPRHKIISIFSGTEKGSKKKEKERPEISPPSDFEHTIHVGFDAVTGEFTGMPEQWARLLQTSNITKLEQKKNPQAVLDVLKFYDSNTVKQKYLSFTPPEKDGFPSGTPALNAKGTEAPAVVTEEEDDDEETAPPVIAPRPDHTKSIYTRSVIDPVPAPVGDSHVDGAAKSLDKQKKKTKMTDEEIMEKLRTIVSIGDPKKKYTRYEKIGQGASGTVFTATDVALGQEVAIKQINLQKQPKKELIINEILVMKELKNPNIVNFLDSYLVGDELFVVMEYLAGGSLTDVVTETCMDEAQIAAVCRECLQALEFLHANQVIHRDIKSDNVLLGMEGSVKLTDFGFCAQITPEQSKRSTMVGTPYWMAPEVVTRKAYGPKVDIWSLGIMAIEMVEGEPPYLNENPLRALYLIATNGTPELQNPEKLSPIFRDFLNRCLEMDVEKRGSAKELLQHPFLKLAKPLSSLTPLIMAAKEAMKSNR
T13 sequence (P48736 whole entry): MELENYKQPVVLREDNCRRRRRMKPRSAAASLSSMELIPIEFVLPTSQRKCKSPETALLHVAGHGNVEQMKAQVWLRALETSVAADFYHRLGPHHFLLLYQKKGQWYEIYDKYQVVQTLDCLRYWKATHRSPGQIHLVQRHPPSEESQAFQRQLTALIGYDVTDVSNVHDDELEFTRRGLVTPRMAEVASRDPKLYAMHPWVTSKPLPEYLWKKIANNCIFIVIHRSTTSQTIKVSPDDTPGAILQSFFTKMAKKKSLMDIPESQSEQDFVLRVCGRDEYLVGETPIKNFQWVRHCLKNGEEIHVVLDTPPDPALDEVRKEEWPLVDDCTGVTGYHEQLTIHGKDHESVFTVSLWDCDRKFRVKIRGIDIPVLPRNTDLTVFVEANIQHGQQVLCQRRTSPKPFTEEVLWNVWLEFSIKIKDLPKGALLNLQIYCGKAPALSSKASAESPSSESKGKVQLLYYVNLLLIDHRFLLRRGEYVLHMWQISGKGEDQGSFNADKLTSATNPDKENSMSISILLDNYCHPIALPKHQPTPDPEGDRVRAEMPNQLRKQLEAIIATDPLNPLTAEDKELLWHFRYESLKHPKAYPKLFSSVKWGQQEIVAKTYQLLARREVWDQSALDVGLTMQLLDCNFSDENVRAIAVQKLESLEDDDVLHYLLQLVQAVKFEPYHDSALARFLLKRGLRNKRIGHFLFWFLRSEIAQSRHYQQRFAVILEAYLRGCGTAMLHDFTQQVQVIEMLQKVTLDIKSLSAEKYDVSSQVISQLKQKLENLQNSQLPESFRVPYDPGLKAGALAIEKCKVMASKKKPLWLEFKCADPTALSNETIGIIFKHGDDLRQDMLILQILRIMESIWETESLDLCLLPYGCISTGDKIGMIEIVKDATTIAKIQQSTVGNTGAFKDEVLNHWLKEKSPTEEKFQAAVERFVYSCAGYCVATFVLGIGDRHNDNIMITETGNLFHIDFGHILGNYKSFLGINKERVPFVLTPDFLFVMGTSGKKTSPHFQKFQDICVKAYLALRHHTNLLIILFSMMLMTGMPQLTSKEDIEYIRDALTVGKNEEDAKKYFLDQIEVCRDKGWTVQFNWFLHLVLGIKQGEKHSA
T8 sequence (P50613 whole entry): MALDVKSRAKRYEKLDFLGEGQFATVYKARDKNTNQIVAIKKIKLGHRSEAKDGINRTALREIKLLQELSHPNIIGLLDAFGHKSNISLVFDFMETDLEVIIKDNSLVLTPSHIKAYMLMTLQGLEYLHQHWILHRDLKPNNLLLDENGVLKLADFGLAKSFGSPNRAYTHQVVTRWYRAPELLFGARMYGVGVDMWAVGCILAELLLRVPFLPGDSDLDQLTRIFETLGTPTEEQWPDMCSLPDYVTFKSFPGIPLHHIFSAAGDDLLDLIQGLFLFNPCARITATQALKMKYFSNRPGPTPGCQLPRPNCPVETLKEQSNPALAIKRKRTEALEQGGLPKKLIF
T2 sequence (Q9H093 whole entry): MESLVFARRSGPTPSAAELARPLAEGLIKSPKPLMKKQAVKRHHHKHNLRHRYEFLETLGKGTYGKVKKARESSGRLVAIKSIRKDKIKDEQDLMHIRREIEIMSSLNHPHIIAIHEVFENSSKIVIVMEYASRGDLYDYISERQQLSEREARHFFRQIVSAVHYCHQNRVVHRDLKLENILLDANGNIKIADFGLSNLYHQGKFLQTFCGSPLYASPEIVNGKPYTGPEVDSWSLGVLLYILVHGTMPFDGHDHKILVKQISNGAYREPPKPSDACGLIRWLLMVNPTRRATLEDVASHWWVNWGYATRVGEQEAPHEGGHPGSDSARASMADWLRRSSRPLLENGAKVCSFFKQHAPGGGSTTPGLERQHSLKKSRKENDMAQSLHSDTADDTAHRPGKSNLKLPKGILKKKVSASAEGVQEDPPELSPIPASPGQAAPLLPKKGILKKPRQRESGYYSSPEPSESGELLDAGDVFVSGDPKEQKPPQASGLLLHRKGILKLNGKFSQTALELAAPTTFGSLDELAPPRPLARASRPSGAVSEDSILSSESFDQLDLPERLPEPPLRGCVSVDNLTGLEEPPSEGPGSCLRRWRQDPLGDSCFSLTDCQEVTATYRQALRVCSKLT

SMILES: COc1cc2c(NC3CCN(C)CC3)cc(-c3ccc(C)o3)nc2cc1OCCCN1CCCC1 [CM-272, 6-methoxy-2-(5-methyl-2-furyl)-N-(1-methyl-4-piperidyl)-7-(3-pyrrolidin-1-ylpropoxy)quinolin-4-amine]
- remaining binding at 10 µM (BRAF): 14%
- remaining binding at 10 µM (SNARK): 12%
- remaining binding at 10 µM (FAK): 96%
- remaining binding at 10 µM (ALK; [1]): 0.5%
- Kd (ALK; KINOMEscan): 820 nM
- remaining binding at 10 µM (BMPR2): 32%
- remaining binding at 10 µM (CSNK1D): 95%
- remaining binding at 10 µM (SRC): 100%
- remaining binding at 10 µM (CDK7): 53%
- remaining binding at 10 µM (PAK2): 67%
- remaining binding at 10 µM (ULK2): 9.8%
- remaining binding at 10 µM (DCAMKL1): 22%
- remaining binding at 10 µM (PIK3C2B): 61%
- remaining binding at 10 µM (PIK3CG): 88%
- remaining binding at 10 µM (JNK3): 8.9%
- remaining binding at 10 µM (LKB1): 100%
- remaining binding at 10 µM (PDGFRB): 100%
- remaining binding at 10 µM (PKAC-alpha): 100%
- remaining binding at 10 µM (ERK1): 100%
- remaining binding at 10 µM (BTK; [1]): 0.5%
- Kd (BTK; KINOMEscan): 1100 nM
- remaining binding at 10 µM (MAPKAPK2): 87%
- remaining binding at 10 µM (AURKB): 61%
